The first test deals with Muscle bind like protein 1 (MBNL1). In words: MBNL1 quantification by TR-FRET in hSkMc from TEBU-BIO (Example 20). Format: cell-based, human. The note with it: 0.5 mg/ml, versus basal control. As to the method:
(§1) hSkMc (Innoprot) are seeded in 12-well plates at a density of 1.5×10^4 cells/well in Skeletal Muscle Cell Growth Medium (Promocell). After 72 hours incubation, medium is removed and replaced with Skeletal Muscle Cell Differentiation Medium (Promocell). 48 hours after beginning cell differentiation, fresh differentiation medium with 0.5 mg/ml of test items is added. Treatment is continued for 48 hours and non-treated cells are used as basal control. After 48 hours of treatment, cell medium is removed and added cell lysis buffer to wells. Immediately, plates are kept at −80° C. in order to improve protein extraction during the defrosting process. After 72 hours, cells are lysated by shaking the plates in an orbital rotor at room temperature for 45 minutes. Next, cell lysates are collected and assayed to quantify the level of MBNL1 protein and total protein concentration.
(§2) MBNL1 protein levels measurement is performed with Human MBNL1 Assay Kit (Cisbio) according to the manufacturer's protocol. Briefly, the kit is used to perform a TR-FRET for MBNL1 quantification. The protein is detected with the antibodies provided in the kit and quantified by a fluorescence measurement. The quantification is carried out by using a microplate reader (ClarioStar, BMG) set to 665 nm and 620 nm.
(§3) Total protein concentration of cell lysate is determined by using Pierce BCA Protein Assay Kit™ (Thermo Scientific) according to manufacturer's protocol. In brief, after adding Working Reagent to the samples and the standards, the samples are incubated. Afterwards, color change is measured with an absorbance microplate reader (Clariostar™, BMG) at 562 nm. The total protein amount is used to normalize the level of MBNL1 protein concentration obtained by the TR-FRET test in the samples.
The assay is performed as disclosed in Example 7 except that hSkMc from TEBU-BIO (Barcelona, Spain) are used. Different peptides of the invention are tested at a concentration of 0.5 mg/ml.
For “Ac-Ala-Leu-Lys-Pro-Asn-Thr-OH (Ac-ALKPNT-OH) [PEP27]”, the “% MBNL1” value turned out to be 126.1%.
“H-Ala-Ile-Arg-Pro-Asn-Thr-NH2 (H-AIRPNT-NH2) [PEP44]”: the “% MBNL1” value is 240.6%.
On the same count and under the same terms, as for “H-Ala-Leu-Arg-Pro-Asn-Thr-NH2 (H-ALRPNT-NH2) [PEP30]”, the figure is 181.3%; as for “H-Ala-Leu-Lys-Pro-Asn-NH2 (H-ALKPN-NH2) [PEP41]”, 138.4%.
For “H-Ala-Leu-Lys-Pro-Gln-Thr-NH2 (H-ALKPQT-NH2) [PEP50]”, the “% MBNL1” value was determined as 119.4%.
Regarding “H-Ala-Leu-Lys-Val-Asn-Thr-NH2 (H-ALKVNT-NH2) [PEP31]”, the “% MBNL1” value is 120.0%.
As to “H-Gly-Ile-Lys-Pro-Asn-Thr-NH2 (H-GIKPNT-NH2) [PEP42]”, the “% MBNL1” value came out at 114.2%.
On the same count and under the same terms, as for “H-Gly-Val-Arg-Pro-Asn-Thr-NH2 (H-GVRPNT-NH2) [PEP46]”, the figure is 182.1%.
Still for that read-out and setting: as for “H-Leu-Lys-Pro-Asn-Thr-NH2 (H-LKPNT-NH2) [PEP40]”, the figure is 117.3%.

The test system is the same in a further test. In words: MBNL1 quantification in human skeletal muscle cells by TR-FRET (Examples 7, 19). Format: cell-based. The settings on record: hSkMc, 0.5 mg/mL, as Example 7, versus basal control. The procedure:
MBNL1 induction by the peptides of the invention is evaluated by a Time resolved fluorescence resonance energy transfer (TR-FRET) assay. The aim of this study is to investigate the capacity of peptide candidates to increase MBNL1 in human skeletal muscle cells (hSkMc).
as §1, §2, §3
Different peptides of the invention are tested as disclosed in Example 7 at 0.5 mg/mL.
Background: In TR-FRET formats the signal depends on donor and acceptor labels being close together.
Take “Ac-Ala-Asp-Val-Tyr-Lys-NH2 (Ac-ADVYK-NH2) [PEP14]”: the “% MBNL1” value was determined as 145.0%.
Turning to “Ac-Asn-Val-Tyr-Lys-NH2 (Ac-NVYK-NH2) [PEP11]”, the “% MBNL1” value turned out to be 145.2%.
On the same count and under the same terms, as for “Ac-Asp-Ile-Tyr-Lys-NH2 (Ac-DIYK-NH2) [PEP8]”, the figure is 190.4%; as for “Ac-Asp-Leu-Tyr-Lys-NH2 (Ac-DLYK-NH2) [PEP12]”, 154.4%.
Same read-out and setting: as for “Ac-Asp-Val-Phe-Lys-NH2 (Ac-DVFK-NH2) [PEP9]”, the figure is 134.2%.
The same measure, in the same setting: next, “Ac-Asp-Val-Tyr-Arg-NH2 (Ac-DVYR-NH2) [PEP10]”: 158.3%; “Ac-Asp-Val-Tyr-Lys-Ala-NH2 (Ac-DVYKA-NH2) [PEP15]”: 145.2%.
Turning to “Ac-Asp-Val-Tyr-Lys-OH (Ac-DVYK-OH) [PEP4]”, the “% MBNL1” value is listed as 378.5%.
Still for that read-out and setting: next, “Ac-Glu-Ile-Phe-Arg-NH2 (Ac-EIFR-NH2) [PEP24]”: 117.5%; “Ac-Glu-Ile-Tyr-Arg-NH2 (Ac-EIYR-NH2) [PEP23]”: 181.4%.
The same measure, in the same setting: as for “Ac-Glu-Ile-Tyr-Lys-NH2 (Ac-EIYK-NH2) [PEP20]”, the figure is 214.2%; as for “Ac-Glu-Val-Tyr-Lys-NH2 (Ac-EVYK-NH2) [PEP7]”, 141.5%.
Still for that read-out and setting: as for “H-Asp-Val-Tyr-Lys-NH2 (H-DVYK-NH2) [PEP5]”, the figure is 261.4%; as for “Palm-Asp-Val-Tyr-Lys-NH2 (DVYK; HELM PEPTIDE1{[CCCCCCCCCCCCCCCC(=O)[*:2]].D.V.Y.K.[am]}$$$$V2.0; SMILES CCCCCCCCCCCCCCCC(=O)N[C@@H](CC(=O)O)C(=O)N[C@H](C(=O)N[C@@H](Cc1ccc(O)cc1)C(=O)N[C@@H](CCCCN)C(N)=O)C(C)C) [PEP3]”, 127.7%.
“Palm-Glu-Val-Tyr-Lys-NH2 (EVYK; HELM PEPTIDE1{[CCCCCCCCCCCCCCCC(=O)[*:2]].E.V.Y.K.[am]}$$$$V2.0; SMILES CCCCCCCCCCCCCCCC(=O)N[C@@H](CCC(=O)O)C(=O)N[C@H](C(=O)N[C@@H](Cc1ccc(O)cc1)C(=O)N[C@@H](CCCCN)C(N)=O)C(C)C) [PEP13]”: the “% MBNL1” value is given as 147.2%.

The values are drawn from patent US12419824B2, “Compounds useful for the treatment and/or care of the skin, hair, nails and/or mucous membranes” (Lubrizol Advanced Materials, Inc., priority 2019, dated 2025).
